This note sets out measurements from article PMC9271048, “Probing strigolactone perception mechanisms with rationally designed small-molecule agonists stimulating germination of root parasitic weeds” (Nature Communications, 2022).

Where two headings read alike, the source gives them in different places.

Test [1] addresses T1, ShHTL7 (Striga hermonthica, UniProt A0A0M3PNA2). Description: ShHTL7-hydrolysis reaction analysis (HPLC). The test is classed as biochemical. Particulars: authors' response to reviewer. How it is done: Compounds 4a, (R)- and (S)-4a, 4g-i, and rac-GR24 were dissolved in DMSO and prepared as stock solution ([…]) just before use. A 200 μL of the reaction solution consisting of PBS buffer (pH 7.3), 10 μM samples, and 10 μg recombinant ShHTL7 or its mutants was incubated at 30 °C for 30 min; with the reaction solution (200 μL) containing PBS buffer (pH 7.3) and 10 μM samples as the blank control[40],[52]. Subsequently, the reaction was terminated by adding 200 μL of methanol, and then the reaction mixture was shaken for 10 s and centrifuged at 5310 × g for 60 s. The supernatant was filtered and the remaining amount of samples was analyzed by HPLC. The relative percentages of hydrolysis were obtained by using the amount of compounds in blank control as reference.
Supplementary Fig. 11. Hydrolysis of 4a, (R)-4a, (S)-4a, 4g-i, and rac-GR24 by ShHTL7 at 30 °C for 30 min. The remaining amounts of compounds in recombinant ShHTL7 protein and buffer solution were determined by HPLC analysis. The relative percentages of hydrolysis were calculated by using the amount of compounds in the buffer as reference. The error bar indicates SD (n = 3 biologically independent experiments).
(§1) (1 picture or pasted object on this page, not shown here)

In test [2] the target is T1, ShHTL7. Description: biochemical. It is filed as binding. How it is done: We used a sensitive, high-throughput Surface plasmon resonance (SPR) method to examine the binding affinities of the 51 candidates to the recombinant ShHTL7 protein, which was immobilized on the CM5 sensor chip. rac-GR24 was used as a positive control.
The interactions of small molecules with recombinant ShHTL7 were evaluated using the Biacore T200 system (GE Healthcare, USA) at 25 °C[47]. The purified ShHTL7 protein was immobilized on a CM5 sensor chip using the standard amine coupling procedure. […] PBS-P (10 mM phosphate buffer, 2.7 mM KCl, 137 mM NaCl, 0.05% Surfactant P20) containing 0.5% DMSO was used as the running buffer. For the screening experiments, candidates with different structures at 50 μM in the running buffer were injected individually at a flow rate of 30 μL min^−1. For binding affinity studies, compounds with different concentrations in running buffer were used. During the experiments, both the contact and dissociation times were set as 1 min. Data analysis was performed using the Biacore Evaluation Software (T200 Version 2.0). The affinity values (KD) were obtained by the kinetics analysis or the steady-state affinity method.

Test [3] concerns the target T1, ShHTL7. Description: Lineweaver-Burk plot analysis of ShHTL7 inhibition (YLG). It is filed as biochemical. Particulars: ShHTL7-mediated hydrolysis of YLG; no significant change of Vmax. How it is done: 0.1 Å width; second, the number of data points of each bin was counted; third, the density of each bin is calculated using the number of D5′C-OG-DNE2-HG data points fall in the corresponding bin being divided by the total number of the distance-distance data points; last, the Z(A,D) (shown in Equation 1) was constructed by fitting the data with the two-dimensional Gaussian function using the non-linear surface fitting methods in Origin Lab.
In this equation, Z is the conformation probability density of D5′C-OG and DNE2-HG in the calculation system. µ is the mean of the normal distribution. σ is the standard deviation.
The PPC of each system was calculated using the bivariate integration of the corresponding CPDF over the interval 1.5–3.8 Å for D5′C-OG, and 1.6–3.5 Å for DNE2-HG with Equation 2 using Matlab software (The Math Works, Natick, MA).
The final PPC value of each system was the averaged data of every 200 ns in the MD simulation.
The structure figures were analyzed by PYMOL software8.
The structures of (S)-4a were constructed and optimized by Sybyl 6.9 (Tripos Inc., St. Louis, MO).
DFT calculations of (S)-4a were performed by Gaussian 09 program package at b3lyp/6-31g(d) level9.
The results were analyzed by GaussView 5.0.
Determination of the Inhibition Model
For Lineweaver-Burk plot analysis, the competitive inhibition of ShHTL7 by compounds 1, 2g, and 2h was performed by using YLG as the substrate at 25 °C. The excitation and emission […]
Supplementary Fig. 7. Lineweaver−Burk plots for the inhibition of ShHTL7 by compounds 1 (a), 2g (b), and 2h (c). Error bar indicates SD (n = 3 biologically independent experiments).
as §1
[1] Yao, R. et al. DWARF14 is a non-canonical hormone receptor for strigolactone. Nature 536, 469– […]
[2] de Saint Germain, A. et al. An histidine covalent receptor and butenolide complex mediates strigolactone perception.
[3] […]
A: We have evaluated inhibitory kinetics of the three representative compounds 1, 2g, and 2h on ShHTL7-mediated hydrolysis of YLG. […]

Test [4] deals with T1, ShHTL7. In words: Competitive inhibition of ShHTL7 with Yoshimulactone Green (YLG) as substrate. It is filed as biochemical. Particulars: YLG used as the substrate, means ± SD, n = 3. How it is done:
Based on the structural feature of the lead compound 2h, we selected three regions to perform further modification (Supplementary Fig. 6), to try to further improve bioactivity. Insertion of a carbonyl group between the bicyclo[2.2.1]hept-5-en-2-yl group and the piperazine ring was detrimental to binding affinity (Supplementary Fig. 6, region A). Removal of an oxygen atom in region B was found unfavorable to binding affinity as well. Therefore, we focused on modifying the benzene ring (region C) for 2h. A series of compounds with different groups at region C was synthesized (Supplementary Scheme 1). […] As SPR just measures the binding ability, another independent assay by using Yoshimulactone Green (YLG) as the fluorescent substrate was performed to determine the half-maximal inhibitory concentration (IC50) of these compounds against ShHTL7[22].
The excitation and emission wavelengths of YLG are 480 and 520 nm, respectively. We used a fluorescence spectrophotometer (CARY Eclipse) to detect the fluorescence intensity change of YLG during the enzymatic hydrolysis assay process. All the testing compounds and YLG were dissolved in DMSO and prepared as stock solutions just before use. […] The changes of fluorescence at 520 nm of each well were recorded every 1 min for 30 min. Using the reaction mixture without adding enzyme and tested compounds as the background control. After subtracting the background hydrolysis, a linear fluorescence increase in 8 min was used for further inspection. The IC50 values were determined via fitting relative inhibition percentages with the varying concentrations of compounds in Microsoft Excel.

The subject of test [5] is P. aegyptiaca seeds. In words: P. aegyptiaca seed germination assay. It is filed as in vivo, Phelipanche aegyptiaca. Particulars: for germination of P. aegyptiaca seeds, source data average: 10 μM, Fig. 1d source data, average of 3; for P. aegyptiaca germination(%): Supplementary Table 1, compounds tested at 10 μM, means ± SD, n = 3. How it is done: P. aegyptiaca seeds were harvested from Xinjiang province, China in 2017. The seeds were surface sterilized using 1% NaClO solution for 2 min and then washed with distilled water six times. For seed germination assay, about 20 pieces of glass fiber-filter paper discs (15 mm diameter, Whatman GF/B) were placed separately on two layers of filter papers (9 cm diameter, Whatman) in a Petri dish. Five milliliters of distilled water was added to each Petri dish to wet the papers. Approximately 40–90 sterilized seeds were spread onto each glass fiber-filter paper disc. After the seeds were conditioned in the dark at 25 °C for 4 days[48], glass fiber-filter paper discs were blotted dry on filter papers (9 cm) and transferred to the wells of 24-well cell culture plates. The testing compounds were dissolved in acetone and diluted with H2O (VH2O/Vacetone = 999/1) just before use[49]. rac-GR24 and 1‰ acetone solution were used as positive and negative controls, respectively. One hundred microliters of the test solution was added to each well of the plates, and all treatments were performed in three biological repeats. The plates were sealed and incubated in the dark at 25 °C for a week. The experiments were performed at least three times. The germinated seeds were observed by using an electronic magnifier at ×20 magnification.

T1 sequence (A0A0M3PNA2 entry or part of it): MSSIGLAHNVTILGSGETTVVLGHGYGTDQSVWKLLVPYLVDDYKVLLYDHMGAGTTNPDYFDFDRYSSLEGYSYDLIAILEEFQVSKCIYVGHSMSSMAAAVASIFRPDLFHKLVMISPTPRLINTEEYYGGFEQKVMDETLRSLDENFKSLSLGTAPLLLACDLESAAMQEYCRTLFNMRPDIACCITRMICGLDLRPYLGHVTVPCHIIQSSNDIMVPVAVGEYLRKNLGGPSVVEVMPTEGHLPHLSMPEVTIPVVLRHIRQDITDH

As to `O=C(c1ccc([N+](=O)[O-])cc1)N1CCN(CC2CC3C=CC2C3)CC1` (stereo not drawn) [2e], the “hydrolysis by ShHTL7” value in test [1] is recorded as “could not be hydrolyzed by ShHTL7”. Further, in test [2], the dissociation constant (Kd) came out at 8.77 ± 0.11 µM.

Regarding `O=C(COc1ccc(Cl)cc1)N1CCN(CC2CC=CCC2)CC1` (stereo not drawn) [2g], the “hydrolysis by ShHTL7” value in test [1] was “could not be hydrolyzed by ShHTL7”. The “inhibition manner (Lineweaver-Burk plot)” value in test [3] is listed as “in a competitive manner”. In addition, the Kd in test [2] was found to be 1.02 ± 0.11 µM.

As for `Cc1ccc(OCC(=O)N2CCN(CC3CC4C=CC3C4)CC2)cc1` (stereo not drawn) [2h], in test [3], the “inhibition manner (Lineweaver-Burk plot)” value is reported as “in a competitive manner”. In addition, in test [4] (IC50 (Supplementary Table 1)), the IC50 stood at 22 ± 4.97 µM. Further, in test [5], the “germination of P. aegyptiaca seeds, source data average” value came out at 25.888% and the “P. aegyptiaca germination(%)” value is recorded as 27.4%. Also, binding in test [2] was put at a Kd of 0.96 µM.

In the case of `O=C(c1ccc(F)cc1)N1CCN(CC2CC=CCC2)CC1` (stereo not drawn) [compound 1, (4-(cyclohex-3-en-1-ylmethyl)piperazin-1-yl)(4-fluorophenyl)methanone], the “inhibition manner (Lineweaver-Burk plot)” value in test [3] was “in a competitive manner”. The IC50 in test [4] (read-out: IC50 (Supplementary Table 1)) was found to be 15.9 ± 1.47 µM. For the same compound, in test [5], the “germination of P. aegyptiaca seeds, source data average” value is 40.0744% and the “P. aegyptiaca germination(%)” value amounted to 39.4%. The affinity in test [2], expressed as Kd, was 13.3 ± 1.4 µM.
